Data: publication PMC8804615, “Characterization and comparison of recombinant full‐length ursine and human sex hormone‐binding globulin” (FEBS Open Bio, 2021)

Tests used:
human SHBG (hSHBG) = molecular target: T1, human SHBG (hSHBG) (Homo sapiens, UniProt P04278); assay: competition with [3H]DHT, dextran-coated charcoal separation; format: binding; conditions: ~6 nM [3H]DHT; data not shown
T1 construct: homodimer ~94 kDa, glycosylated
T1 sequence (P04278 30-402): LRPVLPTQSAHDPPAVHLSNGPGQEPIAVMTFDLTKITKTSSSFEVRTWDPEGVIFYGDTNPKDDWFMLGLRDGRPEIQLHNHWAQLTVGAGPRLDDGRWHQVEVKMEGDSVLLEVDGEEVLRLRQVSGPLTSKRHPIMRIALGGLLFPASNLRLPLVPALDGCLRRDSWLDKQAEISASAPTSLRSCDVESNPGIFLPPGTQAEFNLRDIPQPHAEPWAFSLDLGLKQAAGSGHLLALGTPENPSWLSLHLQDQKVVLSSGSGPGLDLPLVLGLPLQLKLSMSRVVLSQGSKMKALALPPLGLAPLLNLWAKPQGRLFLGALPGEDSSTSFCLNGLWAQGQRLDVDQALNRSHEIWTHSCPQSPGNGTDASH

[1] = molecular target: recombinant full-length ursine sex hormone-binding globulin with a C-terminal FLAG tag (Ursus arctos (brown bear)); assay: SEC-MALS; WYATT 30S5 SEC column, 20 mM Tris-HCl, 250 mM NaCl (for the ursine measurements), 1 mM CaCl2, 1 uM DHT, pH 8.0; about 10 ug SHBG injected; dimer
ursine SHBG (uSHBG) = molecular target: T2, ursine SHBG (uSHBG) (Ursus arctos, UniProt Z9D432XYQ2); assay: competition with [3H]DHT, dextran-coated charcoal separation; format: binding; conditions: ~6 nM [3H]DHT; data not shown
T2 construct: homodimer ~93 kDa, glycosylated; 402 aa precursor

[2] = molecular target: the molecule itself; assay: SEC-MALS; WYATT 30S5 SEC column, 20 mM Tris-HCl, 150 mM NaCl, 1 mM CaCl2, 1 uM DHT, pH 8.0; about 10 ug SHBG injected; dimer
[3] = molecular target: the molecule itself; assay: SEC-MALS; native human serum SHBG; WYATT 30S5 SEC column, 20 mM Tris-HCl, 150 mM NaCl, 1 mM CaCl2, 1 uM DHT, pH 8.0; dimer

T2 sequence (Z9D432XYQ2 27-402 limits assumed): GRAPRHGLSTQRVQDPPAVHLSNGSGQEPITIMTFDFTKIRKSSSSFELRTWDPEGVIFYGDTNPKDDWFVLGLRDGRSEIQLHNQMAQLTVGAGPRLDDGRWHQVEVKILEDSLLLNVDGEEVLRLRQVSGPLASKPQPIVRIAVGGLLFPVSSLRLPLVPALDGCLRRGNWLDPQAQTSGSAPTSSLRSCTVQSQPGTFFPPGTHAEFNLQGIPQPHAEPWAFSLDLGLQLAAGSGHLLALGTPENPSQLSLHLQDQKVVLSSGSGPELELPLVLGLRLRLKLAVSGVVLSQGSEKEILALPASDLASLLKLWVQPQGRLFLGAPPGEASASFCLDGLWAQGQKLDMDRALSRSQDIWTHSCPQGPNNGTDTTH

Molecule: C[C@]12CC[C@H]3[C@@H](CCC4=CC(=O)CC[C@@]43C)[C@@H]1CC[C@@H]2C(=O)CO [deoxycorticosterone]
- RBA (DHT = 100%) (human SHBG (hSHBG)): < 1%

Molecule: recombinant full-length ursine sex hormone-binding globulin with a C-terminal FLAG tag (natural protein)
- stoichiometry N [1]: 2

Molecule: C[C@]12CCC(=O)C=C1CC[C@@H]1[C@@H]2CC[C@@]2(C)[C@H]1CC[C@]2(O)C(=O)CO [11‐deoxycortisol]
- RBA (DHT = 100%) (ursine SHBG (uSHBG)): < 1%
- RBA (DHT = 100%) (human SHBG (hSHBG)): < 1%

Molecule: CC(=O)[C@H]1CC[C@H]2[C@@H]3CCC4=CC(=O)CC[C@]4(C)[C@H]3CC[C@]12C [progesterone]
- RBA (DHT = 100%) (ursine SHBG (uSHBG)): < 1%
- RBA (DHT = 100%) (human SHBG (hSHBG)): < 1%

Molecule: C[C@]12C[C@H](O)[C@H]3[C@@H](CCC4=CC(=O)CC[C@@]43C)[C@@H]1CC[C@@H]2C(=O)CO [corticosterone]
- RBA (DHT = 100%) (ursine SHBG (uSHBG)): < 1%
- RBA (DHT = 100%) (human SHBG (hSHBG)): < 1%

Molecule: C[C@]12CCC(=O)C=C1CC[C@@H]1[C@@H]2CC[C@]2(C)C(=O)CC[C@@H]12 [androstenedione]
- RBA (DHT = 100%) (ursine SHBG (uSHBG)): < 1%
- RBA (DHT = 100%) (human SHBG (hSHBG)): < 1%

Molecule: C[C@]12CC[C@H](O)CC1=CC[C@@H]1[C@@H]2CC[C@]2(C)C(=O)CC[C@@H]12 [dehydroepiandrosterone]
- RBA (DHT = 100%) (ursine SHBG (uSHBG)): < 1%
- RBA (DHT = 100%) (human SHBG (hSHBG)): < 1%

B1: recombinant full-length human sex hormone-binding globulin with a C-terminal FLAG tag (natural protein, UniProt P04278-1 30-402, looked up)
chain: T1 sequence (P04278 30-402)
modifications: glycosylated (insect cell glycans); disulfide Cys164-Cys188 verified by MALDI-ToF MS
notes: precursor of 402 residues expressed with its native signal peptide (29 residues, [residues removed]), which is cleaved on secretion; a second N-terminus one residue shorter (RPVLPTQ...) was also seen by MS. numbers count on: the mature protein; cDNA amplified from human liver total RNA; also called human SHBG; hSHBG; not shown: FLAG, C-terminal, kept
- stoichiometry N [2]: 2

B2: native human serum SHBG (natural protein, UniProt P04278-1 30-402, looked up)
chain: T1 sequence (P04278 30-402)
notes: also called native serum SHBG; SHBG present in human serum
- stoichiometry N [3]: 2
